Experimental findings from patent US20220217972A1, “Methods for cryopreservation of sub-millimeter and millimeter scale biological materials” (Regents of the University of Minnesota, priority 2021, published 2022) are described below.

In data set [1] the test system is Drosophila melanogaster embryos. The conditions noted are these: permeable CPAs compared under the same weight concentration; strain M2.
Experimental: (§1) CPA loading and dehydration. Right after permeabilization, a brush was used to break up clumps into individual embryos floating as a monolayer with minimal overlap (FIG. 2B). […] The embryos should remain floating in order to maintain access to oxygen. After 3 min, “wrinkles” on the embryo surface were observed under a dissecting microscope, indicating volumetric shrinkage (i.e., losing water) in response to higher external osmolarity (FIG. 2C). The percentage of embryos that shrunk was recorded. The 13 weight percent EG petri dish was then placed in a humid chamber. At 25 min, embryos were inspected under a dissecting microscope to confirm that they swelled back to their original shape, indicating EG had entered the embryos. The percentage of embryos that swelled back was recorded.
Next, the mesh basket was blotted and placed in 39 weight percent EG+9 weight percent sorbitol solution prepared in cryobuffer on ice (i.e., ˜4° C.) for 9 min This step dehydrates the embryos (i.e., water loss) thereby elevating the intra-embryonic EG concentration to favor vitrification and avoidance of devitrification during the rewarming processes. In general, 5-6 ml dehydration CPA was used in a 35 mm petri dish.
At this point, intra-embryonic CPA concentration was elevated through dehydration by placing the embryos in a high concentration CPA (i.e., ˜39 weight percent) at 4° C. […]
Data set [2] shares this test system. The data set is described as follows: Post cryopreservation survival (hatch rate and adult rate) of embryos. The data set is classed as in vivo. The conditions noted are these: strain M2; for post cryopreservation survival: replacing sorbitol as sugar in dehydration CPA.
Experimental: Step 1. Embryo collection and staging. On day 1, 700-1200 flies at the age of 1-4 days old were used to collect embryos at room temperature. Usually 4 bottles of flies were used, 8 or more bottles were used if needed. Flies were placed in an empty Drosophila bottle covered with a mesh cloth as a cap (FIG. 2A). Embryos were collected in a 1 hour period on a grape juice plate smeared with yeast paste. The first hour collection served as an egg clean-up procedure for the female flies and were abandoned. Disturbance of flies was minimized during embryo collection. Grape juice plates with collected embryos were labeled with the end time point of collection, for instance, 3 pm was used to label the collection from 2 pm to 3 pm. Embryos were placed in a temperature incubator at 20.1±0.05° C. (Heratherm purchased from Thermo Scientific) until reaching the desired stage for cryopreservation. 20° C. was selected so that optimal embryo age for cryopreservation will be achieved during a normal work hour on the following day. In this work, embryo collection occurred in the afternoon and usually 2-4 collections were performed.
Step 2. Dechorionation and permeabilization. On day 2, embryos were washed off from the grape juice plate into a nylon mesh basket and dechorionated in 50% bleach for 2-4 minutes. After rinsing with running tap water for 1-2 minutes to remove excess bleach, embryos along with the mesh basket were briefly blotted on paper towel and placed in the cryobuffer (20 mM NaCl, 2.7 mM KCl, 10 mM Na2HPO4, 1.8 mM KH2PO4, 4 mM MgCl2, 13 mM MgSO4, 60 mM Glycine, 60 mM Glutamic acid and 5 mM Malic acid, pH6.8, sterilized by filtration) in a 35 mm petri dish. Embryos were examined under a dissecting microscope to confirm the removal of chorions. In addition, the gut morphology was evaluated to verify the embryo stage (FIG. 2B).
Before permeabilization, ˜4 ml isopropanol, mixture of D-limonene and heptane (4:1 v/v), and heptane alone were added to three separate 35 mm glass petri dishes in a fume hood. […]
Step 3. […] The percentage of embryos that shrunk was recorded. […]
For data set [3] the test system is unchanged. Conditions: 13 weight percent EG in cryobuffer; shrink at 3 min, swelled back at 25 min; correct stage, properly permeabilized.
Experimental: as §1

On to `OCCO` [EG, ethylene glycol], for which the “CPA toxicity (post dehydration survival)” value in data set [1] was “least CPA toxicity”. Also, the survival post cryopreservation entry in data set [2] (permeable CPAs compared under the same weight concentration) was “highest survival post cryopreservation”. In data set [3], the “embryos that shrink and swell” value is over 90%. In the case of `C[S+](C)[O-]` [DMSO, dimethyl sulfoxide], in data set [1], the “CPA toxicity (post dehydration survival)” value is listed as “highest CPA toxicity”. Regarding `OC[C@H]1O[C@@](CO)(O[C@H]2O[C@H](CO)[C@@H](O)[C@H](O)[C@H]2O)[C@@H](O)[C@@H]1O` [sucrose], in data set [2], the post cryopreservation survival result was “did not affect post cryopreservation survival”. On the same count and under the same terms, next, `OC[C@H]1O[C@H](O[C@H]2O[C@H](CO)[C@@H](O)[C@H](O)[C@H]2O)[C@H](O)[C@@H](O)[C@@H]1O` [trehalose]: “did not affect post cryopreservation survival”.
